The experiment has as its target T1, progesterone receptor PR (PR-B) (Homo sapiens, UniProt P06401).
T1 sequence (P06401 1-933): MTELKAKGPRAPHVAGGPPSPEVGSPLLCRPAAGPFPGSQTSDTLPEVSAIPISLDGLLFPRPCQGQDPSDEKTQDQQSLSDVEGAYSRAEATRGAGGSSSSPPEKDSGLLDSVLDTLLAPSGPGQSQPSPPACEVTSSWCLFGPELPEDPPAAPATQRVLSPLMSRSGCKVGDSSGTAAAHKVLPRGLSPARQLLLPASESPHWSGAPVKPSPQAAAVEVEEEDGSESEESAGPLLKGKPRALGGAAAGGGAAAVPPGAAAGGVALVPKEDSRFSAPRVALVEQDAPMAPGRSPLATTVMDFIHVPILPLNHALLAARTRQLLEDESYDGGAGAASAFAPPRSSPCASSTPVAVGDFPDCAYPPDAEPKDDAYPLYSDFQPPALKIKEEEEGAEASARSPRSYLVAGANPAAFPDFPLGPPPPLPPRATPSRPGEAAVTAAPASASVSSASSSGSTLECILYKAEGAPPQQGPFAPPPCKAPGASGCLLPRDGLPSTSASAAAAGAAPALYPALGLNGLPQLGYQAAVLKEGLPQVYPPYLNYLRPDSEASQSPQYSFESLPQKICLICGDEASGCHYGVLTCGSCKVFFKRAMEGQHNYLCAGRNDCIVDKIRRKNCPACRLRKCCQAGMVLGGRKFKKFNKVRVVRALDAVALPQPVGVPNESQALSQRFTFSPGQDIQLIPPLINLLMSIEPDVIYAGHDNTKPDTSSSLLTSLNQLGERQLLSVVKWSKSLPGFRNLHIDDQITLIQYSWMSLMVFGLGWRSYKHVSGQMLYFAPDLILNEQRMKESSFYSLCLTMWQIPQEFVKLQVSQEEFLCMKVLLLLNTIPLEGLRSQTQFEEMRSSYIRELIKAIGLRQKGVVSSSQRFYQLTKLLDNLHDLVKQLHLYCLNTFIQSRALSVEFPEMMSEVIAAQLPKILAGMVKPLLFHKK
In words: Transactivation assay, antagonism on the progesterone receptor PR. The class given is cell-based. To be noted: transactivation test for antagonistic activity on (PR-B). As for the experimental part: Antagonism on the progesterone receptor PR
The transactivation assay is carried out as described in WO 02/054064.
As for `Cc1noc(=O)c2ccc(NC(=O)C(O)(C#Cc3ccccc3)c3ccccc3)cc12` (racemic) [Example 1b, rac-6-[2,4-diphenyl-2-hydroxybut-3-ynoylamino]-4-methyl-2,3-benzoxazin-1-one], the IC50 is 30 nM.

For `Cc1noc(=O)c2ccc(NC(=O)C(O)(Cc3ccccc3)c3ccccc3)cc12` (racemic) [Example 5, rac-6-[2-hydroxy-2,3-diphenylpropionylamino]-4-methyl-2,3-benzoxazin-1-one], the IC50 came out at 5 nM.

Compound `Cc1noc(=O)c2ccc(NC(=O)C(O)(Cc3ccccc3)c3ccc([N+](=O)[O-])cc3)cc12` (racemic) [Example 10, rac-6-[2-hydroxy-2-(4-nitrophenyl)-3-phenylpropionylamino]-4-methyl-2,3-benzoxazin-1-one] registered a concentration for half-maximal inhibition (IC50) of 5 nM.

Take `N#Cc1ccc(NC(=O)C(O)(Cc2ccccc2)c2ccccc2)cc1Cl` (racemic) [Example 29b, rac-N-(3-chloro-4-cyanophenyl)-2-hydroxy-2,3-diphenylpropionamide]: it took 40 nM to reach half-maximal inhibition (IC50).

As to `N#Cc1ccc(NC(=O)C(O)(Cc2ccccc2)c2ccccc2)cc1C(F)(F)F` (racemic) [Example 34b, rac-N-(4-cyano-3-trifluoromethylphenyl)-2-hydroxy-2,3-diphenylpropionamide], the IC50 amounted to 71 nM.

`Cc1noc(=O)c2ccc(NC(=O)C(O)(Cc3ccccc3)c3ccc(C(C)(C)C)cc3)cc12` (racemic) [Example 45c, rac-6-[2-hydroxy-2-(4-(1,1-dimethylethyl)phenyl)-3-phenylpropionylamino]-4-methyl-2,3-benzoxazin-1-one] came in with an IC50 of 3.2 nM.

With `Cc1noc(=O)c2ccc(NC(=O)C(O)(Cc3ccccc3)c3ccc(N(C)C)cc3)cc12` (racemic) [Example 48d, rac-6-[2-hydroxy-2-(4-dimethylaminophenyl)-3-phenylpropionylamino]-4-methyl-2,3-benzoxazin-1-one], the IC50 was found to be 50 nM.

On to `CC(=O)c1ccc(C(O)(Cc2ccccc2)C(=O)Nc2ccc3c(=O)onc(C)c3c2)cc1` (racemic) [Example 55f, rac-6-[2-hydroxy-2-(4-acetylphenyl)-3-phenylpropionylamino]-4-methyl-2,3-benzoxazin-1-one], for which half-maximal inhibition (IC50) required 32 nM.

The compound `Cc1noc(=O)c2ccc(NC(=O)C(O)(Cc3ccccc3)c3cccs3)cc12` (racemic) [Example 64b, rac-6-[2-hydroxy-2-(thiophen-2-yl)-3-phenylpropionylamino]-4-methyl-2,3-benzoxazin-1-one] displayed an IC50 of 8.9 nM.

As to `Cc1noc(=O)c2ccc(NC(=O)C(O)(Cc3ccccc3)c3ccc(-c4cccs4)cc3)cc12` (racemic) [Example 75, rac-6-[2-hydroxy-2-(4-thiophen-2-ylphenyl)-3-phenylpropionylamino]-4-methyl-2,3-benzoxazin-1-one], the IC50 turned out to be 39.8 nM.

The compound `COc1ccc(C#CC(O)(C(=O)Nc2ccc(C#N)c(Cl)c2)c2ccccc2)cc1` (racemic) [Example 80] gave an IC50 of 40 nM.
